Laboratory results as given in patent publication US9393271B2, “GHRH agonists for islet cell transplantation and function and the treatment of diabetes” (UNIVERSITY OF MIAMI, priority 2012, dated 2016).
Where two headings read alike, the source gives them in different places. Non-standard residues stand in square brackets, D forms with d. Residues, ends and D or L forms follow the SMILES beside them. *: point of attachment. Desaminotyrosyl = O=C(CCc1ccc(O)cc1)*; NMeY = CN[C@@H](Cc1ccc(O)cc1)C(=O)O; Agmatine = N=C(N)NCCCCN*; Nle = CCCC[C@H](N)C(=O)O; Orn = NCCC[C@H](N)C(=O)O; Abu = CC[C@H](N)C(=O)O

T1: GHRH receptor (human pituitary membrane homogenates) (Homo sapiens, UniProt Q02643)
T1 sequence (Q02643 23-423): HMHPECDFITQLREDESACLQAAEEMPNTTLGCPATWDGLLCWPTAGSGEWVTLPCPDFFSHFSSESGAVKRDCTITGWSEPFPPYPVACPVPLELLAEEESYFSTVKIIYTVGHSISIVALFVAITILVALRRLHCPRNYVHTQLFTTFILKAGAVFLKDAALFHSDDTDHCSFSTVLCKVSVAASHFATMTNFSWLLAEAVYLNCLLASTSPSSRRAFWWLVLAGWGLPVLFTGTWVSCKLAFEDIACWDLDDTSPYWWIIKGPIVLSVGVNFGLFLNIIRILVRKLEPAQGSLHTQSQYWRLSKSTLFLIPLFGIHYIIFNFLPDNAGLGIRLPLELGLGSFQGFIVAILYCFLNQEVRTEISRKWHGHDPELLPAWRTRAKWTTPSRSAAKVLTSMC

T2: GHRH receptor in human pituitary membrane homogenates (human, UniProt Q02643)
T2 sequence: T1 sequence (Q02643 23-423)

B1: [Dat1, D-Ala2, Gln8, Orn12, Abu15, Orn21, Nle27, Asp28, Agm29]hGHRH(1-29) (peptide)
peptide: [Desaminotyrosyl][dA]DAIFTQSYR[Orn]VL[Abu]QLSAR[Orn]LLQDI[Nle]D[Agmatine]
SMILES: CCCC[C@H](NC(=O)[C@@H](NC(=O)[C@H](CC(=O)O)NC(=O)[C@H](CCC(N)=O)NC(=O)[C@H](CC(C)C)NC(=O)[C@H](CC(C)C)NC(=O)[C@H](CCCN)NC(=O)[C@H](CCCNC(=N)N)NC(=O)[C@H](C)NC(=O)[C@H](CO)NC(=O)[C@H](CC(C)C)NC(=O)[C@H](CCC(N)=O)NC(=O)[C@H](CC)NC(=O)[C@H](CC(C)C)NC(=O)[C@@H](NC(=O)[C@H](CCCN)NC(=O)[C@H](CCCNC(=N)N)NC(=O)[C@H](Cc1ccc(O)cc1)NC(=O)[C@H](CO)NC(=O)[C@H](CCC(N)=O)NC(=O)[C@@H](NC(=O)[C@H](Cc1ccccc1)NC(=O)[C@@H](NC(=O)[C@H](C)NC(=O)[C@H](CC(=O)O)NC(=O)[C@@H](C)NC(=O)CCc1ccc(O)cc1)[C@@H](C)CC)[C@@H](C)O)C(C)C)[C@@H](C)CC)C(=O)N[C@@H](CC(=O)O)C(=O)NCCCCNC(=N)N

Tests used:
[1] = molecular target: T1, GHRH receptor (human pituitary membrane homogenates); assay: GHRH receptor binding, ligand competition with 125I-labeled JV-1-42 (Table 5); details: for Relative affinitiy (Binding potency) vs GHRH: GHRH(1-29) = 1; for Relative affinitiy (Binding potency) vs JI-38: JI-38 = 1
Description: Normal human pituitaries were purchased from the National Hormone and Peptide Program (A. F. Parlow, Los Angeles, County Harbor-UCLA Medical Center, Torrance, Calif.).

[2] = molecular target: T1, GHRH receptor (human pituitary membrane homogenates); assay: GHRH receptor binding, ligand competition with 125I-labeled [His1,Nle27]hGHRH(1-32)NH2 (Table 6); details: for Relative affinitiy (Binding potency) vs GHRH: GHRH(1-29) = 1
rat pituitary cells = assay: GH release in superfused rat pituitary cell system; format: cell-based; details: 1 nM; for GH Response (ng/ml) Average / GH Response (ng/ml) 1 / GH Response (ng/ml) 2 / GH Response (ng/ml) 3: 3-min pulse; for GH Response (ng/ml) Average: average of runs; for GH Response (ng/ml) 1: run 1; for GH Response (ng/ml) 2: run 2; for GH Response (ng/ml) 3: run 3
Method: Growth hormone releasing activity. Growth hormone releasing was assayed by using a superfused rat pituitary cell system as described in S. Vigh and A. V. Schally, Peptides 5, Suppl: 241-347, 1984. The new synthetic peptide analog of hGHRH P20356 and JI-38 (as control) were administered for 3 minutes (1 mL perfusate) at 1 nM concentration as shown below. Fractions of 1 ml are collected and the GH content in each was determined by ELISA.
Pituitary cells from 2 male rats were used for each channel of the superfusion system. The cells were exposed to 3-min pulses of the new GHRH agonists or to JI-38 as standard every 30 min. Outflowing samples of each channel (1 ml) were collected every 3 min, and GH levels were determined by ELISA.

[3] = molecular target: T1, GHRH receptor (human pituitary membrane homogenates); assay: GHRH receptor binding, ligand competition with 125I-labeled JV-1-42 (Table 7); set-up: Normal human pituitaries were purchased from the National Hormone and Peptide Program; tissue National Hormone and Peptide Program (A. F. Parlow, Harbor-UCLA Medical Center, Torrance, Calif.); host or cells: normal human pituitary, membrane fraction / homogenate; details: JI-38 = 1
GH level = assay: In vivo endocrine activity (GH release), subcutaneous administration; details: rat, s.c.
Method: Subcutaneous Administration. Adult male rats were used and anesthetized with pentobarbital (6 mg/100 g, b.w.), by i.p. injection. […] Blood samples were taken from the jugular vein 5, 15 and/or 30 minutes after the injection. The blood samples were centrifuged, plasma was removed and the GH level was measured by ELISA. The results are summarized in terms of potency in Table 9.

[4] = molecular target: T2, GHRH receptor in human pituitary …; assay: ligand competition, 125I-JV-1-42 displaced, human pituitary membranes
[5] = molecular target: T2, GHRH receptor in human pituitary …; assay: as above; remark: listed apart in the source
[6] = fraction 1 (P-20356) / 21 (JI-38)
[7] = fraction 2 (P-20356) / 22 (JI-38)
[8] = fraction 3 (P-20356) / 23 (JI-38)
[9] = fraction 4 (P-20356) / 24 (JI-38)
[10] = fraction 5 (P-20356) / 25 (JI-38)

Molecule	Relative affinitiy (Binding potency) vs GHRH [1]	Relative affinitiy (Binding potency) vs GHRH [2]	GH Response (ng/ml) Average (rat pituitary cells; [6]) [ng/mL]	GH Response (ng/ml) Average (rat pituitary cells; [7]) [ng/mL]	GH Response (ng/ml) Average (rat pituitary cells; [8]) [ng/mL]	GH Response (ng/ml) Average (rat pituitary cells; [9]) [ng/mL]	GH Response (ng/ml) Average (rat pituitary cells; [10]) [ng/mL]	GH Response (ng/ml) 1 (rat pituitary cells; [6]) [ng/mL]	GH Response (ng/ml) 1 (rat pituitary cells; [7]) [ng/mL]	GH Response (ng/ml) 1 (rat pituitary cells; [8]) [ng/mL]	GH Response (ng/ml) 1 (rat pituitary cells; [9]) [ng/mL]	GH Response (ng/ml) 1 (rat pituitary cells; [10]) [ng/mL]	GH Response (ng/ml) 2 (rat pituitary cells; [6]) [ng/mL]	GH Response (ng/ml) 2 (rat pituitary cells; [7]) [ng/mL]	GH Response (ng/ml) 2 (rat pituitary cells; [8]) [ng/mL]	GH Response (ng/ml) 2 (rat pituitary cells; [9]) [ng/mL]	GH Response (ng/ml) 2 (rat pituitary cells; [10]) [ng/mL]	Relative affinitiy (Binding potency) vs JI-38 [3]	Relative affinitiy (Binding potency) vs JI-38 [1]	also measured
CC[C@H](C)[C@H](NC(=O)[C@H](C)NC(=O)[C@H](CC(=O)O)NC(=O)[C@H](C)NC(=O)[C@@H](N)Cc1ccc(O)cc1)C(=O)N[C@@H](Cc1ccccc1)C(=O)N[C@H](C(=O)N[C@@H](CC(N)=O)C(=O)N[C@@H](CO)C(=O)N[C@@H](Cc1ccc(O)cc1)C(=O)N[C@@H](CCCNC(=N)N)C(=O)N[C@@H](CCCCN)C(=O)N[C@H](C(=O)N[C@@H](CC(C)C)C(=O)NCC(=O)N[C@@H](CCC(N)=O)C(=O)N[C@@H](CC(C)C)C(=O)N[C@@H](CO)C(=O)N[C@@H](C)C(=O)N[C@@H](CCCNC(=N)N)C(=O)N[C@@H](CCCCN)C(=O)N[C@@H](CC(C)C)C(=O)N[C@@H](CC(C)C)C(=O)N[C@@H](CCC(N)=O)C(=O)N[C@@H](CC(=O)O)C(=O)N[C@H](C(=O)N[C@@H](CCSC)C(=O)N[C@@H](CO)C(=O)N[C@@H](CCCNC(=N)N)C(N)=O)[C@@H](C)CC)C(C)C)[C@@H](C)O [GHRH(1-29), hGHRH(1-29)NH2, reference compound]	1	1	–	–	–	–	–	–	–	–	–	–	–	–	–	–	–	–	–	–
CCCC[C@H](NC(=O)[C@@H](NC(=O)[C@H](CC(=O)O)NC(=O)[C@H](CCC(N)=O)NC(=O)[C@H](CC(C)C)NC(=O)[C@H](CC(C)C)NC(=O)[C@H](CCCN)NC(=O)[C@H](CCCNC(=N)N)NC(=O)[C@H](C)NC(=O)[C@H](CO)NC(=O)[C@H](CC(C)C)NC(=O)[C@H](CCC(N)=O)NC(=O)[C@H](CC)NC(=O)[C@H](CC(C)C)NC(=O)[C@@H](NC(=O)[C@H](CCCN)NC(=O)[C@H](CCCNC(=N)N)NC(=O)[C@H](Cc1ccc(O)cc1)NC(=O)[C@H](CO)NC(=O)[C@H](CCC(N)=O)NC(=O)[C@@H](NC(=O)[C@H](Cc1ccccc1)NC(=O)[C@@H](NC(=O)[C@H](C)NC(=O)[C@H](CC(=O)O)NC(=O)[C@H](C)NC(=O)CCc1ccc(O)cc1)[C@@H](C)CC)[C@@H](C)O)C(C)C)[C@@H](C)CC)C(=O)N[C@@H](CC(=O)O)C(=O)NCCCCNC(=N)N [JI-38, reference compound] (Desaminotyrosyl-ADAIFTQSYR[Orn]VL[Abu]QLSAR[Orn]LLQDI[Nle]D-Agmatine)	2.4	3.03	49.27	131.71	194.68	137.45	96.70	42.46	143.58	222.13	142.96	96.34	56.07	119.83	167.23	131.93	97.05	1	1	Relative affinitiy (Binding potency) vs JI-38 ([2]; JI-38 = 1): 1
CCCC[C@H](NC(=O)[C@@H](NC(=O)[C@H](CC(=O)O)NC(=O)[C@H](CCC(N)=O)NC(=O)[C@H](CC(C)C)NC(=O)[C@H](CC(C)C)NC(=O)[C@H](CCCN)NC(=O)[C@H](CCCNC(=N)N)NC(=O)[C@H](C)NC(=O)[C@H](CO)NC(=O)[C@H](CC(C)C)NC(=O)[C@H](CCC(N)=O)NC(=O)[C@H](CC)NC(=O)[C@H](CC(C)C)NC(=O)[C@@H](NC(=O)[C@H](CCCN)NC(=O)[C@H](CCCNC(=N)N)NC(=O)[C@H](Cc1ccc(O)cc1)NC(=O)[C@H](CO)NC(=O)[C@H](CCC(N)=O)NC(=O)[C@@H](NC(=O)[C@H](Cc1ccccc1)NC(=O)[C@@H](NC(=O)[C@H](C)NC(=O)[C@H](CC(=O)O)NC(=O)[C@H](C)NC(=O)[C@H](Cc1ccc(O)cc1)NC)[C@@H](C)CC)[C@@H](C)O)C(C)C)[C@@H](C)CC)C(=O)N[C@@H](CC(=O)O)C(=O)NCCCCNC(=N)N [Peptide P-20356, [N—Me-Tyr^1, Gln^8, Orn^12, Abu^15, Orn^21, Nle^27, Asp^28, Agm^29]hGHRH(1-29)] (H-[NMeY]ADAIFTQSYR[Orn]VL[Abu]QLSAR[Orn]LLQDI[Nle]D-Agmatine)	406.0	–	52.45	337.48	556.46	334.99	197.91	49.98	310.58	491.01	399.95	200.64	54.99	325.76	602.1	270.02	195.18	16.11	171	Stimulation of growth hormone levels after s.c. administration (comparison in words) (GH level): stimulated greater growth hormone levels than hGHRH or JI-38; GH Response (ng/ml) 3 (rat pituitary cells; fraction 1): 52.37 ng/mL; GH Response (ng/ml) 3 (rat pituitary cells; fraction 2): 376.11 ng/mL; GH Response (ng/ml) 3 (rat pituitary cells; fraction 3): 576.26 ng/mL; GH-releasing potency in vitro relative to JI-38 (rat pituitary cells; superfused rat pituitary cells): about 3 times
B1	–	–	–	–	–	–	–	–	–	–	–	–	–	–	–	–	–	–	–	IC50 [4]: 0.04 nM; relative affinity (binding potency) vs GHRH [4]: 102 GHRH(1-29) = 1; relative affinity (binding potency) vs JI-38 [4]: 42.7 JI-38 = 1; IC50 [5]: 0.52 nM; relative affinity (binding potency) vs JI-38 [5]: 8.37 JI-38 = 1
